Experimental data: US6689777B2 (Kenneth S. Warren Institute, priority 2001, dated 2004)

Tests used:
synthetic hemozoin = experiment: Depolymerization of synthetic hemozoin in vitro; assay type: biochemical; conditions: Table 3; 50 mM test compound, acetate buffer pH 5.0, 37° C., 16 hours
Protocol: This activity is evaluated by incubating a suspension of monomer-free hemozoin at 37° C. with compounds of the present invention for 16 hours. After incubation, hemozoin is separated from any solubilized heme and soluble heme oligomers, the oligomers depolymerized, and the heme present in the supernatants determined.
The synthesis of synthetic hemozoin is carried out as previously described (26). In brief, 60 μmoles of hematin was dissolved in 8 ml of 0.1N NaOH. Following dissolution 49 mmoles of glacial acetic acid was added and the suspension heated at 70° C. overnight. The precipitate was then washed extensively with LPS-free water. In order to remove unreacted heme the precipitate was extracted with 0.1M sodium bicarbonate (pH 9.1) for three hours. The remaining insoluble material was recovered by centrifugation, resuspended in EtOH and transferred to sterile Eppendorf tubes. The material was washed several times in EtOH and finally resuspended in LPS-free double-distilled H2O. The hemozoin preparation was then tested for endotoxin by using the Limulus Amebocyte Lysate test following manufacturer's instructions. Although the preparation of LPS-free hemozoin from native or synthetic sources is not critical for in vitro depolymerization studies, it is critical for studies involving monocytes and animals (see Examples below). Small amounts of LPS can evoke a considerable cytokine response and interfere with interpretation of results. The amount of heme in the final product was determined from a small aliquot using the pyridine-hemochrome method as previously described (26). The preparations are stored at 4° C. until used.
A suspension of monomer-free hemozoin (equivalent to 2 mM free heme) as prepared above was incubated at 37° C. with […] test compound in total volume of 500 μl in acetate buffer (pH: 5.0) in siliconized Eppendorf tubes (Brinkmann Instruments, Westbury, N.Y.) for 16 hours. A control sample containing distilled H2O instead of hemozoin was included. The samples were centrifuged at 14,000 rpm (Eppendorf centrifuge model 5415C, Brinkmann Instruments, Westbury, N.Y.) for 20 min; then 225 μl supernatant was diluted in 175 μl acetate buffer (pH 5.0). Another 225 μl was added to 175 μl 0.5 M NaOH to dissolve possible oligomeric depolymerization products to monomers. Half of the pellet was washed twice for 2.5 hr in 200 μl 2.5% SDS (v/v) in dH2O, the other half was washed twice in 200 μl HCO3^− buffer (pH: 9.1). Both sample supernatants and SDS and HCO3^− buffer supernatants were centrifuged 14,000 rpm for 20 min. and supernatants were added to 10 μl sodium dithionite (200 mg/ml dH2O) to reduce the heme monomers in solution to Fe^2+. All samples were measured in triplicate at 540 nm (Model UV1601 spectrophotometer, Shimradzu Corp, Columbia, Md.). The OD obtained from the blind sample was subtracted from the OD of the hemozoin containing sample.

[1] = system: P. falciparum chloroquine resistant strain (CQR); experiment: P. falciparum growth in culture, chloroquine resistant strain ([3H]-hypoxanthine incorporation); assay type: cell-based; conditions: Plasmodium falciparum, Table 3, read-out: IC50 vs. P. falc. in CQR
Protocol: To determine the effectiveness of the compounds of the present invention against the erythrocytic stage of the malarial parasite, P. falciparum was grown in human erythrocyte suspensions and maintained at 37° C. in candle jars according to the method of Trager and Jensen (15,16). Parasites were stage-synchronized by incubating mainly ring-stage infected erythrocytes in 5% sorbitol for 10 minutes at room temperature (17). Cultures undergo one growth cycle (2 days) before use. Strains used include the chloroquine sensitive strains D10 and HB3, and the chloroquine resistant isolates Dd2 and FCR.
(§1) Parasite growth was determined by measuring incorporation of [^3H]-hypoxanthine into the nucleic acids of the parasite (18). Effects of the compounds of the present invention on parasite growth was determined by measuring the reduction in incorporation of radiolabel as compared to controls. […] After 18 h the plates are harvested onto glass fiber filter 96 well plates using a cell harvester, dried, and the amount of radioactivity is determined. […]
as §1, with “as previously described (23).” for “(18).”, “The,” for “After 18 h the plates are harvested onto glass fiber filter 96 well plates using a cell harvester, dried, and the”, “was” for “is”

P. falciparum = P. falciparum growth in culture ([3H]-hypoxanthine incorporation); assay type: cell-based; conditions: Plasmodium falciparum, Table 3, naphthothiazolium salts, in culture, read-out: IC50 vs. P. falc.
[2] = system: hemozoin ingested by human monocytes; experiment: Breakdown of macrophage-ingested hemozoin; assay type: cell-based; conditions: 25 μM compound, FIG. 1
Protocol: A further evaluation of compounds was performed for activity against pathophysiological effects of hemozoin on the host, using hemozoin-laden macrophages in culture. Freshly-isolated human monocytes were suspended in medium and hemozoin at a concentration reflective of the amount of hemozoin released into circulation during schizogony. In order to maximize contact between hemozoin and monocytes, the cell preparations were centrifuged for 5 sec at 150×g. Ingestion of hemozoin is essentially complete by two hours. Cells were then washed, plated and kept in a humidified incubator. The test compounds of the present invention were added to the wells at concentrations ranging from 0 to 20 mM. Macrophage viability was determined by direct microscopic examination (gross morphology and detachment from the well), trypan blue exclusion method, and LDH release. […] At various times post-treatment (1 hour; 3 hours), cells were lysed, extensively washed and spun down (2500×g) to pellet any cellular components including hemozoin. The lysates were then treated with alkali to dissolve hemozoin to give monomeric heme (35). Monomeric heme was quantified as described above.
Human monocytes were freshly isolated from a buffy coat from a normal donor using Percoll gradients. […] Cells were solubilized at various time points and hemozoin content determined by luminol-elicited chemiluminescence.

[3] = system: freshly isolated human monocytes; experiment: Spontaneous and PMA-elicited oxidative burst by freshly isolated human monocytes; assay type: cell-based; conditions: compound 25 uM, PMA 200 nM
Protocol: Furthermore, Arese and colleagues have data supporting the role of the ingested hemozoin in macrophage dysfunction. Therefore, the compounds of the present invention were evaluated to assess their ability to induce recovery of macrophage effector functions induced by hemozoin. Initially, the effect of the compounds of the present invention were evaluated on spontaneous and PMA-elicited oxidative burst by freshly isolated human monocytes. As will be elaborated upon in the Examples below, freshly isolated human monocytes were plated at 5×10^6 cells/ml, and allowed to equilibrate to 37° C. for 1 h. Compounds of the instant invention were added at a final concentration of 25 uM and PMA added to 200 nM final concentration. Cell suspension aliquots were taken at 30, 60, and 120 minutes, and 14 hours. The oxidative burst was measured by luminol-elicited chemiluminescence for 30 sec., and data expressed as counts per 0.5×10^6 cells.

| Structure (SMILES) | % depol. hemoz. (synthetic hemozoin) [%] | IC50 [1] [nM] | IC50 (P. falciparum) [nM] | hemozoin content of monocytes after phagocytosis of hemozoin (luminol-elicited chemiluminescence) [2] | oxidative burst (luminol-elicited chemiluminescence) [3] |
| --- | --- | --- | --- | --- | --- |
| Cc1c(O)c2ccccc2c2c1sc(NCCCN1CCN(C)CC1)[n+]2C.[Cl-] [1,2-dihydro-1,4-dimethyl-2-[[3-(4-methyl-1-piperazinyl)propyl]imino]naphtho[1,2-d]thiazol-5-ol trihydrochloride] | 2.0 | 500 | 75 | – | – |
| Cc1c(O)c2ccccc2c2c1sc(NC1CCCCC1)[n+]2CCCN(C)C.Cl.[Cl-] [2-(cyclohexylimino)-1,2-dihydro-4-methyl-1-[3-(dimethylamino)propyl]naphtho[1,2-d]thiazol-5-ol dihydrochloride] | 2.2 | 75 | 75 | hemozoin-dissolving ability | strong inhibitor |
